19 compounds from patent US12404304B1, “Telomerase reverse transcriptase (TERT) expression enhancing compounds and methods for using the same” (Sierra Sciences, LLC, priority 2007, dated 2025) can be followed below.

One data set has as its system viable cells in culture. Briefly: Cell viability assay (CellTiter-Glo Luminescent Cell Viability Assay, ATP quantitation, percent of vehicle control). In general terms: Cellular ATP, detected with luciferase, serves as a proxy for viable cell number.
The subject of data set [1] is human TERT expression (hTERT mRNA). Nature of the data set: Quantitative real-time RT-PCR of hTERT mRNA expression (Ct, transcripts) in compound-treated cells. Format: cell-based. The following applies: quantitative real-time RT-PCR. In a few lines:
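Read-out is cycle threshold, the cycle at which probe fluorescence released by Taq 5′-nuclease activity crosses a set level; Ct falls as hTERT mRNA rises. cDNA of treated and untreated cells was compared, with starting transcripts quantified against a known-cDNA standard curve.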

Protocol for viable cells in culture: Cell viability is determined using a homogeneous method, such as CellTiter-Glo® Luminescent Cell Viability Assay (Promega Corporation, Madison, WI.) to determine the number of viable cells in culture These assays are based on quantitation of the ATP present, which signals the presence of metabolically active cells. Luminescent values of compound treated cells are compared to that of cells treated with vehicle alone to determine the average cell viability as a percent of control.

With `Cn1c(=O)c2c(nc(SCc3cc4c(cc3Cl)OCO4)n2C)n(C)c1=O` [compound 1235], in the data set with viable cells in culture, the “Average Cell Viability after 24 Hours (% DMSO)” value is on record as 75.75 % DMSO. Further, the “Average Number of hTERT Transcripts” value in data set [1] stood at 153.66.

As for `CCc1ccc(S(=O)(=O)N(C(=O)c2ccccc2)c2ccc3oc(C)c(C(C)=O)c3c2)cc1` [compound 1236], the “Average Cell Viability after 24 Hours (% DMSO)” value with viable cells in culture worked out at 86.61 % DMSO. For the same compound, the “Average Number of hTERT Transcripts” value in data set [1] was 5.24.

On to `CCCCOC(=O)c1c(C)oc2ccc(NS(=O)(=O)c3ccc4ccccc4c3)cc12` [compound 1237], for which, in the data set with viable cells in culture, the “Average Cell Viability after 24 Hours (% DMSO)” value was determined as 71.28 % DMSO. Besides, the “Average Number of hTERT Transcripts” value in data set [1] is reported as 43.79.

For the compound `O=C(O)c1c(-c2ccccc2)c2oc3ccccc3c2[nH]c1=O` [compound 1238], the “Average Cell Viability after 24 Hours (% DMSO)” value with viable cells in culture stood at 89.10 % DMSO. The “Average Number of hTERT Transcripts” value in data set [1] is 5.16.

As for `CCCCCOC(=O)c1c(C)oc2ccc(NS(=O)(=O)c3ccc(OC)cc3)cc12` [compound 1239], in the data set on viable cells in culture, the “Average Cell Viability after 24 Hours (% DMSO)” value came to 66.47 % DMSO. The “Average Number of hTERT Transcripts” value in data set [1] amounted to 31.94.

Regarding `Cc1ccc(-n2c(=O)oc3ccc(Cl)cc3c2=O)cc1` [compound 1241], the “Average Cell Viability after 24 Hours (% DMSO)” value in the data set with viable cells in culture came to 77.91 % DMSO. Besides, the “Average Number of hTERT Transcripts” value in data set [1] came out at 39.79.

For `COc1ccccc1-n1c(=O)oc2ccc(Cl)cc2c1=O` [compound 1242], the “Average Cell Viability after 24 Hours (% DMSO)” value with viable cells in culture amounted to 80.60 % DMSO. Moreover, the “Average Number of hTERT Transcripts” value in data set [1] amounted to 56.42.

As for `COc1ccc(COC(=O)C2=C(C)NC3=C(C(=O)CC(c4ccco4)C3)C2c2cccs2)cc1` (centres unmarked) [compound 1243], the “Average Cell Viability after 24 Hours (% DMSO)” value with viable cells in culture was found to be 99.98 % DMSO. Moreover, in data set [1], the “Average Number of hTERT Transcripts” value amounted to 5.18.

Take `CCOC(=O)C1=C(C)NC2=C(C(=O)CC(c3ccccc3)C2)C1c1cccc(F)c1` (centres unmarked) [compound 1244]: the “Average Cell Viability after 24 Hours (% DMSO)” value in the data set with viable cells in culture was 80.52 % DMSO. Besides, the “Average Number of hTERT Transcripts” value in data set [1] came to 9.34.

As for `CC1=C(C(=O)OC2CCCC2)C(c2cccc(F)c2)C2=C(CC(c3cccs3)CC2=O)N1` (centres unmarked) [compound 1245], in the data set with viable cells in culture, the “Average Cell Viability after 24 Hours (% DMSO)” value turned out to be 79.22 % DMSO. Moreover, the “Average Number of hTERT Transcripts” value in data set [1] is reported as 8.42.

Take `CC1=C(C(=O)OC2CCCCCC2)C(c2ccc([N+](=O)[O-])cc2)C2=C(CC(C)(C)CC2=O)N1` (centres unmarked) [compound 1246]: the “Average Cell Viability after 24 Hours (% DMSO)” value with viable cells in culture turned out to be 83.08 % DMSO. In addition, in data set [1], the “Average Number of hTERT Transcripts” value is reported as 27.65.

Regarding `CC1=C(C(=O)OC2CCCC2)C(c2ccc(Br)cc2)C2=C(CC(C)(C)CC2=O)N1` (centres unmarked) [compound 1247], the “Average Cell Viability after 24 Hours (% DMSO)” value with viable cells in culture was 95.77 % DMSO. Moreover, in data set [1], the “Average Number of hTERT Transcripts” value is 74.16.

As for `COC(=O)CSC1=C(C#N)C(c2ccco2)C(C(=O)Nc2ccc(Cl)cc2)=C(C)N1` (centres unmarked) [compound 1248], the “Average Cell Viability after 24 Hours (% DMSO)” value in the data set with viable cells in culture was 57.47 % DMSO. Further, in data set [1], the “Average Number of hTERT Transcripts” value was determined as 4.69.

For `Brc1n[nH]c2ncnc(N3CCCC3)c12` [compound 1249], the “Average Cell Viability after 24 Hours (% DMSO)” value in the data set with viable cells in culture is 77.92 % DMSO. For the same compound, the “Average Number of hTERT Transcripts” value in data set [1] is 27.87.

As for `Cc1cc(C2CCCCC2)n(O)c(=O)c1` [compound 1250], the “Average Cell Viability after 24 Hours (% DMSO)” value in the data set on viable cells in culture is 67.25 % DMSO. Moreover, the “Average Number of hTERT Transcripts” value in data set [1] turned out to be 184.64.

For the compound `O=S(=O)(c1cccc(F)c1)N1CCC(Oc2ccc(-n3cnnn3)cc2)CC1` [compound 1251], the “Average Cell Viability after 24 Hours (% DMSO)” value with viable cells in culture is given as 65.10 % DMSO. Further, the “Average Number of hTERT Transcripts” value in data set [1] was 23.22.

Turning to `Oc1ccc2nc(N3CCOCC3)sc2c1` [compound 1252], the “Average Cell Viability after 24 Hours (% DMSO)” value with viable cells in culture came out at 96.63 % DMSO. In addition, in data set [1], the “Average Number of hTERT Transcripts” value is reported as 4.21.

As for `CCC(O)c1nc2ccccc2n1CCOc1cccc(OC)c1` (centres unmarked) [compound 1253], the “Average Cell Viability after 24 Hours (% DMSO)” value with viable cells in culture is given as 91.13 % DMSO. Besides, the “Average Number of hTERT Transcripts” value in data set [1] is listed as 3.09.

For `COc1ccc(OC)c(NC(=O)CSc2ccc(-c3ccccn3)nn2)c1` [compound 1254], the “Average Cell Viability after 24 Hours (% DMSO)” value in the data set with viable cells in culture was found to be 66.42 % DMSO. Besides, the “Average Number of hTERT Transcripts” value in data set [1] was 47.45.
